Laboratory results: paper PMC6441019, “Prospective discovery of small molecule enhancers of an E3 ligase-substrate interaction” (Nature Communications, 2019)
Where no end group is shown, it is not given here.

Legend:
[1] = target: T1, pSer33/S37A β-catenin peptide binding to β-TrCP (Homo sapiens, UniProt P35222+Q9Y297, S37A); experiment: TR-FRET peptide binding and cooperativity assay, pSer33/S37A peptide
T1 construct: titrating BODIPY-FL-labeled β-catenin peptides (residues 17-48) against 300 pM β-TrCP; 6xHis-SMT3 (N, cleaved yes); made in house; host or cells: E. coli (co-expressed with BirA)
T1 sequence (Q9Y297 1-569 isoform Q9Y297-2, stated change not applied): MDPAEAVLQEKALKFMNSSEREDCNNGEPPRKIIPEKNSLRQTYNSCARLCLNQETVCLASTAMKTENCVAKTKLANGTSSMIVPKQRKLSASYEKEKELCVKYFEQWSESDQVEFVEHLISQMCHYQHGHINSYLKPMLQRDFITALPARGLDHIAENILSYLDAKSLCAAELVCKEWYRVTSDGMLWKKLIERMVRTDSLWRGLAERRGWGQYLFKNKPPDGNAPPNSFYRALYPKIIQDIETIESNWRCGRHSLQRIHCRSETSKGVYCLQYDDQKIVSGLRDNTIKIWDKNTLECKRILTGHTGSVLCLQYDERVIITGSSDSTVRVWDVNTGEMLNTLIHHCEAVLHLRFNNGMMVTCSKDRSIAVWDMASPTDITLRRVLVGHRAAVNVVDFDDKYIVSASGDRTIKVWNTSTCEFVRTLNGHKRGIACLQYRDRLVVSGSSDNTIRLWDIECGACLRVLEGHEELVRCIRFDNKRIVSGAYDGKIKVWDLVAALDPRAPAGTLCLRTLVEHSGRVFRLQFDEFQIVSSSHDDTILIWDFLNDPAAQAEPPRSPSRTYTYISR
T1 sequence (P63208 whole entry partner, the tested form may be a part): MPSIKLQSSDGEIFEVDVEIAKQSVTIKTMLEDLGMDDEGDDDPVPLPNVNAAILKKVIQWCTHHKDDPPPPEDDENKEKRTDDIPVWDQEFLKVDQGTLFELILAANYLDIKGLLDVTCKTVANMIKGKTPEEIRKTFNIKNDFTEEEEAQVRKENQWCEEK
T1 sequence (P35222 17-48 S37A limits assumed): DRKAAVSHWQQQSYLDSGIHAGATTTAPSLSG
Method: (§1) Compounds were incubated in a 20 μl reaction volume with 300 pM biotinylated β-TrCP/Skp1 preincubated with 1.2 nM terbium-coupled streptavidin (Cisbio) and BODIPY-FL labeled β-catenin peptides (see figure legends for peptide details) in a white 384-well microplate (Perkin Elmer ProxiPlate), using a PBS buffer containing 0.01% Triton X-100 and 2 mM DTT with 2% final DMSO. […] Following 1-h incubation, plates were read for TR-FRET signal after excitation at 320 nm and read at 520 and 620 nm using an EnVision plate reader (Perkin Elmer). TR-FRET signal was calculated using a 520/620 nm ratio. Binding and enhancement data were fit to a standard Hill equation (Y = Bmin + (Bmax − Bmin)(X^h)/(X^h + EC50^h)) in Prism (GraphPad). Errors are standard error of the fit.

[2] = target: T2, S33E/S37A β-catenin peptide binding to β-TrCP (Homo sapiens, UniProt P35222+Q9Y297, S33E/S37A); experiment: TR-FRET binding enhancement assay, S33E/S37A peptide; details: 1% binding saturation
T2 construct: titrating BODIPY-FL-labeled β-catenin peptides (residues 17-48) against 300 pM β-TrCP; 6xHis-SMT3 (N, cleaved yes); made in house; host or cells: E. coli (co-expressed with BirA)
T2 sequence (Q9Y297 1-569 isoform Q9Y297-2, stated change not applied, one chain of several): as the sequence (Q9Y297 1-569 isoform Q9Y297-2, stated change not applied) above
T2 sequence (P63208 whole entry partner, one chain of several, the tested form may be a part): as the sequence (P63208 whole entry partner, the tested form may be a part) above
Method: as §1

[3] = target: T2, S33E/S37A β-catenin peptide binding to β-TrCP; experiment: TR-FRET peptide binding assay, S33E/S37A peptide; details: read-out: binding affinity of S33E/S37A peptide
Method: as §1

[4] = target: T3, pSer33/S37A β-catenin peptide ubiquitylation by SCFβ-TrCP (Homo sapiens, UniProt P35222+Q9Y297, S37A); experiment: In vitro ubiquitylation of pSer33/S37A β-catenin peptide; format: biochemical
T3 construct: fluorescently-labeled β-catenin peptide (residues 17–60; as indicated) was ubiquitylated; 6xHis-SMT3 (N, cleaved yes); made in house; host or cells: E. coli (β-TrCP1/Skp1); E. coli or SF9 (Cul1-Rbx1)
Method: (§2) Four micromolar of fluorescently-labeled β-catenin peptide (residues 17–60) were ubiquitylated in a buffer containing 25 mM Tris Cl (pH 7.5), 50 mM NaCl, 5 mM MgCl2, 2 mM ATP, and 1 mM DTT at room temperature in the presence of 62.5 μM Ubiquitin, 125 nM Ube1, 1.75 μM Cdc34A, and 100 nM neddylated SCF^β-TrCP in the presence or absence of compound (as indicated). Typically, individual reaction mixes with either Ubiquitin, Ube1 and Cdc34A or β-catenin, SCF^β-TrCP and compound were preincubated and subsequently mixed to initiate β-catenin ubiquitylation. Reactions were quenched by SDS loading buffer, resolved by SDS-PAGE and imaged for fluorescence. For full length β-catenin protein ubiquitylation 400 nM β-catenin and 400 nM SCF^β-TrCP were used instead.

[5] = target: T4, S33E/S37A β-catenin peptide ubiquitylation by SCFβ-TrCP (Homo sapiens, UniProt P35222+Q9Y297, S33E/S37A); experiment: In vitro ubiquitylation of S33E/S37A β-catenin peptide; format: biochemical; details: 20 μM compound
T4 construct: fluorescently-labeled S33E/S37A β-catenin peptide (residues 17–60) was ubiquitylated; 6xHis-SMT3 (N, cleaved yes); made in house; host or cells: E. coli (β-TrCP1/Skp1); E. coli or SF9 (Cul1-Rbx1)
Method: as §2

[6] = target: T5, full-length S33E/S37A β-catenin protein ubiquitylation by SCFβ-TrCP (Homo sapiens, UniProt P35222+Q9Y297, S33E/S37A); experiment: In vitro ubiquitylation of full-length S33E/S37A β-catenin protein; format: biochemical; details: 20 μM compound
T5 construct: 6xHis-SMT3 (N, cleaved yes); host or cells: HEK293T (β-catenin); E. coli (β-TrCP1/Skp1); E. coli or SF9 (Cul1-Rbx1)
Method: as §2

β-TrCP = target: T6, β-TrCP (Homo sapiens, UniProt Q9Y297); experiment: TR-FRET peptide binding in absence of compound
T6 construct: 6xHis-SMT3 (N, cleaved yes); made in house; host or cells: E. coli (co-expressed with BirA)
Method: as §1

[7] = target: T7, pSer33/Ser37 β-catenin:β-TrCP interaction (Homo sapiens, UniProt P35222+Q9Y297); experiment: TR-FRET binding enhancement assay, pSer33/Ser37 peptide
T7 construct: titrating BODIPY-FL-labeled β-catenin peptides (residues 17-48) against 300 pM β-TrCP; 6xHis-SMT3 (N, cleaved yes); made in house; host or cells: E. coli (co-expressed with BirA)
T7 sequence (Q9Y297 1-569 isoform Q9Y297-2): as the sequence (Q9Y297 1-569 isoform Q9Y297-2, stated change not applied) above
T7 sequence (P63208 whole entry partner, the tested form may be a part): as the sequence (P63208 whole entry partner, the tested form may be a part) above
T7 sequence (P35222 17-48 limits assumed): as the sequence (P35222 17-48 S37A limits assumed) above, with A21S counted along it
Method: as §1

[8] = target: T8, pSer33/Ser37 β-catenin peptide binding to β-TrCP (Homo sapiens, UniProt P35222+Q9Y297); experiment: TR-FRET peptide binding and cooperativity assay, pSer33/Ser37 peptide; details: ratio of peptide KD without and with saturating enhancer; pSer33/Ser37
T8 construct: titrating BODIPY-FL-labeled β-catenin peptides (residues 17-48) against 300 pM β-TrCP; 6xHis-SMT3 (N, cleaved yes); made in house; host or cells: E. coli (co-expressed with BirA)
T8 sequence (Q9Y297 1-569 isoform Q9Y297-2): as the sequence (Q9Y297 1-569 isoform Q9Y297-2, stated change not applied) above
T8 sequence (P63208 whole entry partner, the tested form may be a part): as the sequence (P63208 whole entry partner, the tested form may be a part) above
T8 sequence (P35222 17-48 limits assumed): as the sequence (P35222 17-48 S37A limits assumed) above, with A21S counted along it
Method: as §1

[9] = target: T1, pSer33/S37A β-catenin peptide binding to β-TrCP; experiment: TR-FRET binding enhancement assay, pSer33/S37A peptide
Method: as §1

[10] = target: T9, pSer33/Ser37 β-catenin peptide ubiquitylation by SCFβ-TrCP (Homo sapiens, UniProt P35222+Q9Y297); experiment: In vitro ubiquitylation of pSer33/Ser37 β-catenin peptide; format: biochemical
T9 construct: fluorescently-labeled β-catenin peptide (residues 17–60) were ubiquitylated; 6xHis-SMT3 (N, cleaved yes); made in house; host or cells: E. coli (β-TrCP1/Skp1); E. coli or SF9 (Cul1-Rbx1)
T9 sequence (Q9Y297 1-569 isoform Q9Y297-2): as the sequence (Q9Y297 1-569 isoform Q9Y297-2, stated change not applied) above
T9 sequence (P63208 whole entry partner, the tested form may be a part): as the sequence (P63208 whole entry partner, the tested form may be a part) above
T9 sequence (Q13616 whole entry partner, the tested form may be a part): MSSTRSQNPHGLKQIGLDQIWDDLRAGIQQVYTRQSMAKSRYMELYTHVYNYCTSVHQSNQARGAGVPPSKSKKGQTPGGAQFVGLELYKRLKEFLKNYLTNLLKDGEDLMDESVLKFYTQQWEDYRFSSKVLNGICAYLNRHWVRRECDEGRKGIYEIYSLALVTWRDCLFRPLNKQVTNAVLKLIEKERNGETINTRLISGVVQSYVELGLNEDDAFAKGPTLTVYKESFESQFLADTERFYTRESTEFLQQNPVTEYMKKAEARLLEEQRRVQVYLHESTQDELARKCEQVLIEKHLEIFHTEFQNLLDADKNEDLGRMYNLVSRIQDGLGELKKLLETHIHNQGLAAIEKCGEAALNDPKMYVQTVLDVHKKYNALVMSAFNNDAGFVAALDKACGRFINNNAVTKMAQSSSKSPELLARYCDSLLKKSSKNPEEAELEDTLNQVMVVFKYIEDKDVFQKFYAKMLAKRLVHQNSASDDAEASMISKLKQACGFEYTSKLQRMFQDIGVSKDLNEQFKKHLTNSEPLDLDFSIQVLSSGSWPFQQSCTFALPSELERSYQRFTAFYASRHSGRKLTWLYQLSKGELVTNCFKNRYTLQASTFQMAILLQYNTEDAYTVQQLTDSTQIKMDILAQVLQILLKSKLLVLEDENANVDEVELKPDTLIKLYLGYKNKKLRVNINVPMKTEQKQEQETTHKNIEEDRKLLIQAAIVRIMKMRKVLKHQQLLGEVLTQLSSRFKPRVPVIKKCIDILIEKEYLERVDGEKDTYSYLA
T9 sequence (P62877 whole entry partner, the tested form may be a part): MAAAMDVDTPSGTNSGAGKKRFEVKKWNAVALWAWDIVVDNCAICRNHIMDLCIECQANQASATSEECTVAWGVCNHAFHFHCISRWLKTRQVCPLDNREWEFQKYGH
T9 sequence (Q15843 1-76 partner limits assumed): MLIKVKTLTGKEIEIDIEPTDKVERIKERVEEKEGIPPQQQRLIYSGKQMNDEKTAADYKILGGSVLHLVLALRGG
T9 sequence (P35222 17-60 limits assumed): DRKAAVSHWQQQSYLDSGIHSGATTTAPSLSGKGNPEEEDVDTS
Method: as §2

With `O=C(O)c1cccc(NC(=O)c2c(Sc3c(Cl)cccc3Cl)cc(C(F)(F)F)[nH]c2=O)c1` [NRX-103094] as the molecule, how does the “cooperativity of peptide binding to β-TrCP” value [1] read?
Its value is 1000 fold.

What about the EC50 [2] of the same molecule?
The EC50 was 3.9 ± 0.1 µM.

What about the Kd [3] of the same molecule?
Its Kd is 0.022 µM.

And the “concentration giving ubiquitylation greater than WT pSer33/pSer37 levels” value [4]?
Its value is 250 nM.

And the “ubiquitylation of S33E/S37A β-catenin peptide” value [5]?
The value was “robust time-dependent ubiquitylation”.

And the “ubiquitylation of full-length S33E/S37A β-catenin protein” value [6]?
Its value is “strongly ubiquitylated”.

How did the “decrease in binding affinity relative to pSer33/S37A peptide” value (β-TrCP) turn out when “Ac-CDRKAAVSHWQQQSYLDEGIHAGATTTAPSLSG [S33E/S37A]” was run?
The value was greater than 10 fold.

`O=C(O)c1cccc(NC(=O)c2c(Oc3ccccc3)cc(C(F)(F)F)[nH]c2=O)c1` [NRX-2663] was tested. Which EC50 [7] did it give?
Its EC50 is 80 ± 4 µM.

And the cooperativity of binding [8]?
Its cooperativity of binding is 13 fold.

And the EC50 [9]?
The EC50 was 22.9 ± 1.4 µM.

What about the “ligand concentration at which ubiquitin chain formation resembles WT pSer33/pSer37 peptide” value [10] of the same molecule?
The value was no less than 16 μM.

What about the “enhancement of ubiquitylation of pSer33/Ser37 β-catenin peptide” value ([10]; peptide residues 17–60) of the same molecule?
The value was “markedly enhances”.
